Experimental data reported in ChEMBL document CHEMBL1201862, “PubChem BioAssay data set” (2004).
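Protocol summary: plate cells (96-well), add compound at 5 concentrations, incubate 48 h, interpolate endpoints linearly. Here, GI50 denotes the concentration required for 50% inhibition of growth.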 Activity calls are given as the source filed them. Rule as the data show it: active = GI50 up to about 1.1 µM and inactive = higher.

Assays:
Assay in all cases: NCI tumour cell line growth inhibition, 48 h
UACC-257 = tested on: UACC-257
SK-MEL-2 = tested on: SK-MEL-2
UO-31 = tested on: UO-31
DMS-273 = tested on: DMS-273
HOP-62 = tested on: HOP-62
HT-29 = tested on: HT-29
TK-10 = tested on: TK-10
HOP-18 = tested on: HOP-18
U-251 = tested on: U-251
M14 = tested on: M14
OVCAR-8 = tested on: OVCAR-8
COLO 205 = tested on: COLO 205
HL-60 = tested on: HL-60
M19-MEL = tested on: M19-MEL
Malme-3M = tested on: Malme-3M
RPMI-8226 = tested on: RPMI-8226
HCT-116 = tested on: HCT-116
NCI-H23 = tested on: NCI-H23
LXFL 529 = tested on: LXFL 529
MOLT-4 = tested on: MOLT-4
LOX IMVI = tested on: LOX IMVI
CCRF-CEM = tested on: CCRF-CEM
OVCAR-3 = tested on: OVCAR-3
DLD-1 = tested on: DLD-1
RXF 631 = tested on: RXF 631
SK-MEL-5 = tested on: SK-MEL-5
SN12C = tested on: SN12C
NCI-H460 = tested on: NCI-H460
A498 = tested on: A498
CAKI-1 = tested on: CAKI-1
IGROV-1 = tested on: IGROV-1
HCT-15 = tested on: HCT-15
SNB-78 = tested on: SNB-78
OVCAR-5 = tested on: OVCAR-5
KM12 = tested on: KM12
HCC 2998 = tested on: HCC 2998
SK-MEL-28 = tested on: SK-MEL-28
DMS-114 = tested on: DMS-114
NCI-H226 = tested on: NCI-H226
UACC-62 = tested on: UACC-62
ACHN = tested on: ACHN
XF498 = tested on: XF498
786-0 = tested on: 786-0
SF-539 = tested on: SF-539
SW-620 = tested on: SW-620
K562 = tested on: K562
HOP-92 = tested on: HOP-92
SF-268 = tested on: SF-268
SF-295 = tested on: SF-295
NCI-H522 = tested on: NCI-H522
SK-OV-3 = tested on: SK-OV-3
EKVX = tested on: EKVX
A549 = tested on: A549
OVCAR-4 = tested on: OVCAR-4
KM-20L2 = tested on: KM-20L2
SNB-19 = tested on: SNB-19

Measured: GI50

N#CC(C#N)=Cc1ccc(CP(=O)(O)O)cc1
> 100 µM: HCT-15
inactive: UACC-257 > 100 µM | SK-MEL-2 > 100 µM | UO-31 > 100 µM | DMS-273 > 100 µM | HOP-62 > 100 µM | HT-29 > 100 µM | TK-10 > 100 µM | HOP-18 > 100 µM | U-251 > 100 µM | M14 > 100 µM | OVCAR-8 > 100 µM | COLO 205 > 100 µM | HL-60 70.6 µM | M19-MEL > 100 µM | Malme-3M > 100 µM | RPMI-8226 > 100 µM | HCT-116 > 100 µM | NCI-H23 > 100 µM | LXFL 529 > 100 µM | MOLT-4 > 100 µM | LOX IMVI > 100 µM | CCRF-CEM 44.2 µM | OVCAR-3 > 100 µM | DLD-1 > 100 µM | RXF 631 > 100 µM | SK-MEL-5 > 100 µM | SN12C > 100 µM | NCI-H460 > 100 µM | A498 > 100 µM | CAKI-1 > 100 µM | IGROV-1 > 100 µM | SNB-78 > 100 µM | OVCAR-5 > 100 µM | KM12 > 100 µM | HCC 2998 > 100 µM | SK-MEL-28 > 100 µM | DMS-114 > 100 µM | NCI-H226 > 100 µM | UACC-62 > 100 µM | ACHN > 100 µM | XF498 > 100 µM | 786-0 > 100 µM | SF-539 > 100 µM | SW-620 > 100 µM | K562 > 100 µM | HOP-92 > 100 µM | SF-268 > 100 µM | SF-295 > 100 µM | NCI-H522 59.6 µM | SK-OV-3 > 100 µM | EKVX > 100 µM | A549 > 100 µM | OVCAR-4 > 100 µM | KM-20L2 > 100 µM | SNB-19 > 100 µM
